# Values joined by “and” are separate entries in the source; they are usually repeats but may differ in a detail not shown here. Identical values can stand only once.
# Legend:
# [1] = tested on: HCV replicon cells containing R155K; assay type: cell-based; details: for Replicon Assay (resistance of viral variant): R155K, value (spread in brackets)
# Description: (§1) The stable wild-type (mADE) and variant HCV sub-genomic replicon cell lines were generated using the T7 RNA runoff transcripts from the corresponding high efficiency Con1 replicon plasmids.
# (§2) The stable wild-type and variant HCV sub-genomic replicon cell lines were generated using the T7 RNA runoff transcripts from the corresponding high efficiency Con1 replicon plasmids.
# [2] = tested on: HCV replicon cells containing R155M; assay type: cell-based; details: for Replicon Assay (resistance of viral variant): R155M, value (spread in brackets)
# Description: as §1, §2
# [3] = tested on: HCV replicon cells containing R155T; assay type: cell-based; details: for Replicon Assay (resistance of viral variant): R155T, value (spread in brackets)
# Description: as §1, §2
# [4] = tested on: HCV replicon cells containing R155I; assay type: cell-based; details: value (spread in brackets), 2880 min
# [5] = tested on: HCV replicon cells containing R155G; assay type: cell-based; details: value (spread in brackets), 2880 min
# HCV NS3 protease T54A = assay type: biochemical
# HCV NS3 protease A156S = assay type: biochemical
# HCV NS3 protease A156T = assay type: biochemical
# [6] = tested on: Con1-based HCV replicon cells with a different set of adaptive mutations (24-2); details: determined previously in 24-2 replicon cells (refs 25,41); read-out: 48-h IC50; cited from earlier work
# genotype 1 HCV = experiment: Phase 1b clinical trial (Study VX04-950-101), plasma HCV RNA; details: for Δ in VL (Log change in HCV RNA from nadir to Day 14 (end of dosing)): 14 days, one value per subject
# [7] = Hepatitis C virus, 48 h, read-out: Replicon IC50
smiles,measurement,setting,value
COc1ccc2c(O[C@@H]3C[C@H]4C(=O)N[C@]5(C(=O)O)C[C@H]5/C=C\CCCCC[C@H](NC(=O)OC5CCCC5)C(=O)N4C3)cc(-c3csc(NC(C)C)n3)nc2c1 [BILN 2061],Replicon Assay (resistance of viral variant),[1]; 2880 min,355 (213)
same,Replicon Assay (resistance of viral variant),[2]; 2880 min,42.2(2.1)
same,Replicon Assay (resistance of viral variant),[3]; 2880 min,645 (173)
same,Replicon Assay (resistance of viral variant),[4],36.5 (9.5)
same,Replicon Assay (resistance of viral variant),[5],821 (208)
same,IC50,HCV NS3 protease T54A; T54A,0.01 µM
same,Fold change,"HCV NS3 protease T54A; enzyme IC50 of T54A compared to the genotype 1a HCV-H reference strain, 15 min",2.3
same,IC50,HCV NS3 protease A156S; A156S,0.0074 µM
same,Fold change,"HCV NS3 protease A156S; enzyme IC50 of A156S compared to the genotype 1a HCV-H reference strain, 15 min",1.6
same,Fold change,"HCV NS3 protease A156T; enzyme IC50 of A156T compared to the genotype 1a HCV-H reference strain, 15 min",>183
CC(C)(C)OC(=O)N[C@H]1CCCCC/C=C\[C@@H]2C[C@@]2(C(=O)NS(=O)(=O)C2CC2)NC(=O)[C@@H]2C[C@@H](OC(=O)N3Cc4cccc(F)c4C3)CN2C1=O [ITMN-191],Replicon Assay (resistance of viral variant),[1]; 2880 min,62.8
same,Replicon Assay (resistance of viral variant),[3]; 2880 min,9.2
same,Replicon Assay (resistance of viral variant),[4],1.3(0.2)
same,Replicon Assay (resistance of viral variant),[5],18.7(3.0)
"NC(=O)c1ncn([C@@H]2O[C@H](CO)[C@@H](O)[C@H]2O)n1 [Ribavirin, 1-beta-D-ribofuranosyl-1H-- 1,2,4-triazole-3-carboxamide]",IC50,[1]; [7],37 ± 17 µM
same,Fold change,"[1]; replicon IC50 of R155K divided by that of the wild-type HCV replicon, 2880 min",0.6 ± 0.3
same,IC50,[2]; [7],39 ± 5 µM
same,Fold change,"[2]; replicon IC50 of R155M divided by that of the wild-type HCV replicon, 2880 min",0.7 ± 0.1
same,IC50,[3]; [7],32 ± 18 µM
same,Fold change,"[3]; replicon IC50 of R155T divided by that of the wild-type HCV replicon, 2880 min",0.6 ± 0.3
CC(C)(C)NC(=O)N[C@H](C(=O)N1C[C@H]2[C@@H]([C@H]1C(=O)NC(CC1CCC1)C(=O)C(N)=O)C2(C)C)C(C)(C)C (stereo partly drawn) [SCH 503034],Replicon Assay (resistance of viral variant),[1]; 2880 min,6.2(4.9)
same,Replicon Assay (resistance of viral variant),[2]; 2880 min,2.5(0.3)
same,Replicon Assay (resistance of viral variant),[3]; 2880 min,10.2(2.4)
same,Replicon Assay (resistance of viral variant),[4],6.6(2.1)
same,Replicon Assay (resistance of viral variant),[5],2.8(0.6)
CCC[C@H](NC(=O)[C@@H]1[C@H]2CCC[C@H]2CN1C(=O)[C@@H](NC(=O)[C@@H](NC(=O)c1cnccn1)C1CCCCC1)C(C)(C)C)C(=O)C(=O)NC1CC1 [VX-950],IC50,"HCV NS3 protease A156T; A156T, one row per patient-specific genetic background",21.5 µM and 15 µM
same,IC50,HCV NS3 protease A156I,> 50 µM
same,IC50,[6],0.354 µM
same,HCV RNA levels at Day 14,"genotype 1 HCV; 7 patients with continued response, down to undetectable (<10 IU/mL)",≤ 64 IU/mL
same,drop in HCV RNA (initial response),genotype 1 HCV; 13 patients who later rebounded during dosing,greater than 2 log10
same,Δ in VL (Log change in HCV RNA from nadir to Day 14 (end of dosing)),genotype 1 HCV; dose 450 (mg q8h),1.82 and 0.65 and 0.41 and 1.84 and 1.06
same,Δ in VL (Log change in HCV RNA from nadir to Day 14 (end of dosing)),genotype 1 HCV; dose 750 (mg q8h),0.73 and 0.22
same,Δ in VL (Log change in HCV RNA from nadir to Day 14 (end of dosing)),genotype 1 HCV; dose 1250 (mg q12h),3.20 and 1.16 and 1.93 and 0.05 and 0.33 and 0.62 and 0.26

# Source: EP1951748B1, “HEPATITIS C VIRUS VARIANTS” (Vertex Pharmaceuticals, Inc., priority 2005, dated 2007)
